Reference: PubChem BioAssay (NCI)
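How tested: cells in 96-well plates exposed to compound for 48 hours at five concentrations. GI50 is the concentration that inhibits growth by half. TGI: total growth inhibition.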

Assays:
Assay in all cases: NCI-60 cell line screen, 48 h; in the data active = GI50 below about 0.43 µM; inactive = the rest
OVCAR-5 ovarian = system: OVCAR-5 ovarian
786-0 renal = system: 786-0 renal
MCF7 breast = system: MCF7 breast
MDA-MB-231 breast = system: MDA-MB-231 breast
DU-145 prostate = system: DU-145 prostate
HOP-62 NSCLC = system: HOP-62 NSCLC
SN12C renal = system: SN12C renal
HCT-116 colon = system: HCT-116 colon
NCI/ADR-RES ovarian = system: NCI/ADR-RES ovarian
KM12 colon = system: KM12 colon
SNB-19 CNS = system: SNB-19 CNS
SW-620 colon = system: SW-620 colon
PC-3 prostate = system: PC-3 prostate
K-562 leukemia = system: K-562 leukemia
SK-OV-3 ovarian = system: SK-OV-3 ovarian
HS 578T breast = system: HS 578T breast
LOX IMVI melanoma = system: LOX IMVI melanoma
SK-MEL-2 melanoma = system: SK-MEL-2 melanoma
A549 NSCLC = system: A549 NSCLC
SK-MEL-5 melanoma = system: SK-MEL-5 melanoma
EKVX NSCLC = system: EKVX NSCLC
UACC-257 melanoma = system: UACC-257 melanoma
SF-539 CNS = system: SF-539 CNS
A498 renal = system: A498 renal
U251 CNS = system: U251 CNS
RXF 393 renal = system: RXF 393 renal
OVCAR-4 ovarian = system: OVCAR-4 ovarian
HL-60(TB) leukemia = system: HL-60(TB) leukemia
COLO 205 colon = system: COLO 205 colon
RPMI-8226 leukemia = system: RPMI-8226 leukemia
SF-268 CNS = system: SF-268 CNS
MDA-MB-435 = system: MDA-MB-435
MALME-3M melanoma = system: MALME-3M melanoma
UACC-62 melanoma = system: UACC-62 melanoma
HCT-15 colon = system: HCT-15 colon
NCI-H522 lung = system: NCI-H522 lung
SK-MEL-28 melanoma = system: SK-MEL-28 melanoma
TK-10 renal = system: TK-10 renal
SNB-75 CNS = system: SNB-75 CNS
UO-31 renal = system: UO-31 renal
NCI-H226 lung = system: NCI-H226 lung
OVCAR-8 ovarian = system: OVCAR-8 ovarian
HCC-2998 colon = system: HCC-2998 colon
IGROV1 ovarian = system: IGROV1 ovarian
SR leukemia = system: SR leukemia
ACHN renal = system: ACHN renal
HOP-92 NSCLC = system: HOP-92 NSCLC
M14 melanoma = system: M14 melanoma
NCI-H23 lung = system: NCI-H23 lung
HT29 colon = system: HT29 colon
SF-295 CNS = system: SF-295 CNS
NCI-H460 lung = system: NCI-H460 lung
MOLT-4 leukemia = system: MOLT-4 leukemia
BT-549 breast = system: BT-549 breast
T-47D breast = system: T-47D breast
CCRF-CEM leukemia = system: CCRF-CEM leukemia
OVCAR-3 ovarian = system: OVCAR-3 ovarian
CAKI-1 renal = system: CAKI-1 renal

Cn1c(C(=O)c2ccncc2)cc2ccccc21
inactive: GI50 (OVCAR-5 ovarian) > 100 µM | GI50 (786-0 renal) > 100 µM | GI50 (MCF7 breast) > 100 µM | GI50 (MDA-MB-231 breast) 66.5 µM | GI50 (DU-145 prostate) > 100 µM | GI50 (HOP-62 NSCLC) > 100 µM | GI50 (SN12C renal) > 100 µM | GI50 (HCT-116 colon) 72 µM | GI50 (NCI/ADR-RES ovarian) 46.8 µM | GI50 (KM12 colon) 75.5 µM | GI50 (SNB-19 CNS) > 100 µM | GI50 (SW-620 colon) 52.8 µM | GI50 (PC-3 prostate) 80.7 µM | GI50 (K-562 leukemia) 59.3 µM | GI50 (SK-OV-3 ovarian) > 100 µM | GI50 (HS 578T breast) 65 µM | GI50 (LOX IMVI melanoma) > 100 µM | GI50 (SK-MEL-2 melanoma) > 100 µM | GI50 (A549 NSCLC) > 100 µM | GI50 (SK-MEL-5 melanoma) 37.5 µM | GI50 (EKVX NSCLC) 78.1 µM | GI50 (UACC-257 melanoma) > 100 µM | GI50 (SF-539 CNS) 87.5 µM | GI50 (A498 renal) 26.2 µM | GI50 (U251 CNS) > 100 µM | GI50 (RXF 393 renal) 35.1 µM | GI50 (OVCAR-4 ovarian) > 100 µM | GI50 (HL-60(TB) leukemia) 76.5 µM | GI50 (COLO 205 colon) > 100 µM | GI50 (RPMI-8226 leukemia) 48.8 µM | GI50 (SF-268 CNS) 96.7 µM | GI50 (MDA-MB-435) > 100 µM | GI50 (MALME-3M melanoma) > 100 µM | GI50 (UACC-62 melanoma) 83.5 µM | GI50 (HCT-15 colon) 90.9 µM | GI50 (NCI-H522 lung) 78.5 µM | GI50 (SK-MEL-28 melanoma) > 100 µM | GI50 (TK-10 renal) > 100 µM | GI50 (SNB-75 CNS) 85.6 µM | GI50 (UO-31 renal) 27.4 µM | GI50 (NCI-H226 lung) > 100 µM | GI50 (OVCAR-8 ovarian) 46 µM | GI50 (HCC-2998 colon) > 100 µM | GI50 (IGROV1 ovarian) > 100 µM | GI50 (SR leukemia) 63.1 µM | GI50 (ACHN renal) > 100 µM | GI50 (HOP-92 NSCLC) 40.2 µM | GI50 (M14 melanoma) > 100 µM | GI50 (NCI-H23 lung) > 100 µM | GI50 (HT29 colon) 92.8 µM | GI50 (SF-295 CNS) > 100 µM | GI50 (NCI-H460 lung) > 100 µM | GI50 (MOLT-4 leukemia) 54.4 µM | GI50 (BT-549 breast) > 100 µM | GI50 (T-47D breast) 41.6 µM | GI50 (CCRF-CEM leukemia) > 100 µM | GI50 (OVCAR-3 ovarian) 49.7 µM | GI50 (CAKI-1 renal) 72.9 µM
> 100 µM: TGI (OVCAR-5 ovarian) | TGI (786-0 renal) | TGI (MCF7 breast) | TGI (MDA-MB-231 breast) | TGI (DU-145 prostate) | TGI (HOP-62 NSCLC) | TGI (SN12C renal) | TGI (HCT-116 colon) | TGI (NCI/ADR-RES ovarian) | TGI (KM12 colon) | TGI (SNB-19 CNS) | TGI (SW-620 colon) | TGI (PC-3 prostate) | TGI (K-562 leukemia) | TGI (SK-OV-3 ovarian) | TGI (HS 578T breast) | TGI (LOX IMVI melanoma) | TGI (SK-MEL-2 melanoma) | TGI (A549 NSCLC) | TGI (SK-MEL-5 melanoma) | TGI (EKVX NSCLC) | TGI (UACC-257 melanoma) | TGI (SF-539 CNS) | TGI (A498 renal) | TGI (U251 CNS) | TGI (RXF 393 renal) | TGI (OVCAR-4 ovarian) | TGI (HL-60(TB) leukemia) | TGI (COLO 205 colon) | TGI (RPMI-8226 leukemia) | TGI (SF-268 CNS) | TGI (MDA-MB-435) | TGI (MALME-3M melanoma) | TGI (UACC-62 melanoma) | TGI (HCT-15 colon) | TGI (NCI-H522 lung) | TGI (SK-MEL-28 melanoma) | TGI (TK-10 renal) | TGI (SNB-75 CNS) | TGI (UO-31 renal) | TGI (NCI-H226 lung) | TGI (OVCAR-8 ovarian) | TGI (HCC-2998 colon) | TGI (IGROV1 ovarian) | TGI (SR leukemia) | TGI (ACHN renal) | TGI (HOP-92 NSCLC) | TGI (M14 melanoma) | TGI (NCI-H23 lung) | TGI (HT29 colon) | TGI (SF-295 CNS) | TGI (NCI-H460 lung) | TGI (MOLT-4 leukemia) | TGI (BT-549 breast) | TGI (T-47D breast) | TGI (CCRF-CEM leukemia) | TGI (OVCAR-3 ovarian) | TGI (CAKI-1 renal)
